For one series, the target named is T1, recombinant human Pgp (Homo sapiens, UniProt P08183).
T1 construct: purchased Promega
Briefly: P-glycoprotein activity assay (Pgp-Glo). In kind it is biochemical. To be noted: 50 nM to 25 μM. The text has this: To evaluate the effects of GA on recombinant human Pgp in a cell membrane fraction, we used the Pgp-Glo assay system (Promega, Madison, WI), according to the manufacturer’s instruction. The assay relies on the ATP dependence of the light-generating reaction of firefly luciferase.

The test system of the next series is HepG2 cells. Briefly: PXR, CYP3A4 and MDR1 expression in HepG2 cells. It is filed as cell-based. Here is the method: (§1) HepG2 (human hepatoma cell line; ATCC HB-8065, Manassas, VA) and HepaRG (HPRGC10, Thermo Fisher Scientific) cells were maintained in culture as previously described.[47] Experiments were performed between passages 2 and 10. Cell viability, clonogenic activity, and apoptotic cell death were assessed as previously described (see Figure S2).[58],[59] HT29 human colorectal adenocarcinoma cells (ATCC HTB-38) and its mucous-secreting HT29-MTX subclone (Sigma-Aldrich) were used as intestinal cell models. HT29 cells were cultured in RPMI (Invitrogen; Life Technologies) containing 10% FBS (v/v) and 1% (v/v) L-glutamine. HT29-MTX cells (from Sigma-Aldrich) were cultured in DMEM supplemented with 2 mM glutamine, 1% nonessential amino acids, and 10% FBS. Cells were maintained at 37 C in a humidified 5% (v/v) CO2 atmosphere chamber and were used between passages 10 and 20.
Cells were harvested and lysed in ice-cold cell lysis buffer (Cell Signaling Technology) and 20 μL/mL protease inhibitor cocktail (Roche). Murine tissues (10 mg each) were weighed and resuspended in 300 μL of PBS supplemented with NP40 (1:50) and a cocktail of protease inhibitors (Pierce, Thermo Fisher Scientific). After preliminary homogenation in a 1-mL potter, sonication was performed in ice (3 cycles of 15 s each with 1 min intervals). After incubation in ice for 1 h and centrifugation (12 000 rpm for 20 min at 4 °C), the supernatant was recovered, and total proteins were quantified by the BCA assay kit (Pierce, Thermo Fisher Scientific). […] The band intensity was analyzed using Gel Pro analyzer Software. […]
RNA was extracted using the RNeasy Plus Kit (QIAGEN, Valencia, CA) and quantified with Implen NanoPhotometer (GmbH Germany), and cDNA synthesis was carried out using SuperScript IV (Thermo Fisher Scientific, MA). […]

For another series, the system named is PPARs. Briefly: AlphaScreen nuclear receptor panel, PPARs. In kind it is biochemical, human. The text has this:
(§2) Ligand binding activity of GA (1) was explored via AlphaScreen technology over a panel of NRs that, along with hPXR (Figure 1A), included major human endocrine and metabolic receptors, such as the retinoid X receptor (RXR), constitutive androstane receptor (CAR), farnesoid X receptor (FXR), vitamin D receptor (VDR), liver X receptor (LXR) forms α and β, and the PPAR isoforms α, δ, and γ (see Figure S1). GA (1) was compared to its analogue δ-tocotrienol (5), the vitamers 3 and 4, their short-chain metabolites (SCMs) α-CEHC (10) and γ-CEHC (11), and the LCMs 2 and 8 (Chart 1). The test was performed in the presence of reference standard agonists for the different NRs.
(§3) The activity of nuclear receptors was determined using AlphaScreen technology, a recruitment coactivator assay previously described.[56]
(§4) (A) The test was carried out at 10 μM compound final concentration. Ligand binding to nuclear receptors was expressed as luminescence units. […] Vehicle was assessed to obtain a measure of background signal (basal evaluation). […] In presence of the ligand, the nuclear receptor LBD undergoes conformational changes, binds to the coactivator and the chemical energy is transferred from donor to acceptor beads in order to produce a signal, i.e. luminescence; in this case the compounds behaves as agonist, changing the conformation of the receptor to recruit the coactivator. […]
(In Alpha technology, singlet oxygen from a donor bead excites a nearby acceptor bead.)

The test system of the next series is HT29. Description: PXR and CYP3A4 protein expression in HT29 cells. In kind it is cell-based. To be noted: HT29, 24 h, 1 to 25 μM. As to the method: as §1, with “Cells were maintained at 37 C in a humidified 5% (v/v) CO2 atmosphere chamber and were used between passages 10 and 20.” left out
(§5) Cells were harvested and lysed in ice-cold cell lysis buffer (Cell Signaling Technology) and 20 μL/mL protease inhibitor cocktail (Roche). […] After incubation in ice for 1 h and centrifugation (12 000 rpm for 20 min at 4 °C), the supernatant was recovered, and total proteins were quantified by the BCA assay kit (Pierce, Thermo Fisher Scientific). […] The band intensity was analyzed using Gel Pro analyzer Software. […]
(§6) PXR and CYP3A4 protein was assessed by immunoblot (20 µg total protein loading) in HT29 cells (from ATCC) were cultured in RPMI (Invitrogen; Life Technologies) containing 10% FBS ( v/v) and 1% ( v/v) L-glutamine. […]

For a further series, the system named is HT29-MTX. Description: PXR and CYP3A4 protein expression in HT29-MTX cells. In kind it is cell-based. Conditions: 24 h, 1 to 25 μM. Here is the method: as §1, with “Cells were maintained at 37 C in a humidified 5% (v/v) CO2 atmosphere chamber and were used between passages 10 and 20.” left out
as §5, §6

The subject of the next series is RXR. Description: AlphaScreen nuclear receptor panel, RXR. In kind it is biochemical, human.
Source text: as §2, §3, §4

T1 sequence (P08183 whole entry): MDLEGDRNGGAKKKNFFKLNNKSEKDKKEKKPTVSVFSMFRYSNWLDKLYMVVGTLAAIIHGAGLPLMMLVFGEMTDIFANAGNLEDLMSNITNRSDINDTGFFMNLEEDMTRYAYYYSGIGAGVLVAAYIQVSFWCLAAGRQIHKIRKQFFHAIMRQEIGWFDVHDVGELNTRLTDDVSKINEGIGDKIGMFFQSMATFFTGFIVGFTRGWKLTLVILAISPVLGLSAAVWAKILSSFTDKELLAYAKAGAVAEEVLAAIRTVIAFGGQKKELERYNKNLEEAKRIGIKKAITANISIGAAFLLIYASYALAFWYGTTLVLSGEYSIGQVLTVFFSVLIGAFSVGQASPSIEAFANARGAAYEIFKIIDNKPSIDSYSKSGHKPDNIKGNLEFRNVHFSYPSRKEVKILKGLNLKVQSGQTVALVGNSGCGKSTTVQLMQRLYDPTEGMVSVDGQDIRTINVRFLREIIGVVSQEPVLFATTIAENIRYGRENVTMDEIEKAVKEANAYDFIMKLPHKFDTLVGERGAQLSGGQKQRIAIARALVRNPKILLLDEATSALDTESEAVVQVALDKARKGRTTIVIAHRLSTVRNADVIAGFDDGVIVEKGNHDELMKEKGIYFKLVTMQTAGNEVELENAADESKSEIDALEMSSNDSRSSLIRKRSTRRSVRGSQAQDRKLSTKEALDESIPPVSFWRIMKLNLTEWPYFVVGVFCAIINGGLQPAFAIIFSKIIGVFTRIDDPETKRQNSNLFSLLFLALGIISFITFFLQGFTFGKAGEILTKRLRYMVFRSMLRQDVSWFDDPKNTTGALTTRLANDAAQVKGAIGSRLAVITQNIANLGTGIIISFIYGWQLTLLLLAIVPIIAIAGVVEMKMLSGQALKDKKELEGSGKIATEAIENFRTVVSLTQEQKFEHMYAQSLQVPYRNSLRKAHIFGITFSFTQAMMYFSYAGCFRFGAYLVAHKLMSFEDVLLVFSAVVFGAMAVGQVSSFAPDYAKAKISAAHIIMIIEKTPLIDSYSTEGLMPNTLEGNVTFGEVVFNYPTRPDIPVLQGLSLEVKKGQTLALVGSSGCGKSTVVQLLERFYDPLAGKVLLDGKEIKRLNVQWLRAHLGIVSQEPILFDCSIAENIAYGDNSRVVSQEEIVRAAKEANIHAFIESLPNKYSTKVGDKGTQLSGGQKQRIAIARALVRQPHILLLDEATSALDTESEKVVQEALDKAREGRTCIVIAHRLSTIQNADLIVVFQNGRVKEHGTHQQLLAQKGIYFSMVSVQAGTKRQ

As for `C/C(=C\CC/C(C)=C/CC[C@]1(C)CCc2cc(O)cc(C)c2O1)CC/C=C(\C)C(=O)O` [GA (1), (2E,6E,10E)-13-[(2R)-6-hydroxy-2,8-dimethyl-chroman-2-yl]-2,6,10-trimethyltrideca-2,6,10-trienoic acid], the “P-glycoprotein (MDR1) activity” value on recombinant human Pgp is “increased in a dose–dose-dependent manner”. In addition, in the series on HepG2 cells (HepG2, 1 to 50 μM), the MDR1 gene expression result was “increased in a dose–dose-dependent manner”. In addition, the “CYP3A4 protein and mRNA expression” value in the series on HepG2 cells (HepG2, 24 h, 1 and 25 μM) was “increased in a dose–dose-dependent manner”. For the same compound, the PXR protein expression entry in the series with HepG2 cells (HepG2, 24 h, 1 and 25 μM) is reported as “increased in a dose–dose-dependent manner”. In addition, the “Response on PPARs” value in the series with PPARs is on record as “No response”. The “PXR and CYP3A4 protein expression” value in the series on HT29 and in the series with HT29-MTX was “increase” in each case. In addition, the “Response on RXR” value with RXR is “No response”.
